Measured values reported in US20170128483A1, “HOST DEPENDENCY FACTORS AS TARGETS FOR ANTIVIRAL THERAPY” (Ruprecht-Karls-Universitat Heidelberg, priority 2014, published 2017).
Structures can show the parent of a compound that is named as a salt. Where two headings read alike, the source gives them in different places.

What was measured:
[1] = test system: DENV-2; test: Virus yield inhibition assay, DENV-2 in Huh7 cells, titers by plaque assay; conditions: for Maximum effect on DENV replication (in words) / Emax: Huh7, DENV-2 MOI 0.1, 48 h; for Emax / EC50: Dengue virus; for Emax: DENV2, Huh-7, 48 h
[2] = Cell viability of Huh7 cells (ATP content / F-Luc activity); conditions: human
[3] = test system: DENV-4; test: Virus yield inhibition assay, DENV-4 in Huh7 cells; type: cell-based, Dengue virus; conditions: 200 μM, Huh7, 48 h
Description: (§1) Given the only 62-67% of amino acid conservation among DENV serotypes (Kyle & Harris 2008), the different serotypes might not be equally dependent on the same host factors for their replication.

[4] = test system: DENV-1; test: Virus yield inhibition assay, DENV-1 in Huh7 cells; type: cell-based, Dengue virus; conditions: 200 μM, Huh7, 48 h
Description: as §1

[5] = test system: DENV(GND)sg-R2A; type: cell-based, Dengue virus; conditions: 200 μM, initial 10 h of transfection
[6] = test system: DENVTCP; test: Time-of-addition with single-round DENVTCP particles in Huh7 cells, Rluc; conditions: 200 μM, readout 48 h
[7] = test system: DENV-2; test: Virus yield inhibition, DENV-2 in primary human monocytes, plaque assay; type: cell-based; conditions: Dengue virus, DENV2, Monocyte
Description: Primary human monocytes isolated from peripheral blood from healthy donors were infected with DENV-2 at an MOI of 10 PFU/cell in the presence of the drug.
Peripheral blood samples from three healthy donors were collected in EDTA tubes. The blood was then diluted with 2 volumes of DPBS without calcium and without magnesium (PAN Biotech) and carefully layered onto Ficoll-hypaque (PAN Biotech). The blood was then subjected to centrifugation at 700 g, without brakes. The interphase cells containing the peripheral blood mononuclear cells (PBMCs) were aspirated, transferred to a clean tube and washed three times with DPBS. CD14+ monocytes were isolated using MicroBeads conjugated to monoclonal anti-human CD14 antibodies (MACS Miltenyi Biotec) according to the manufacturer's instructions, with some modifications. Briefly, 10 μl of Microbeads were incubated with 1×10^7 cells for 15 min at 4° C. After washing with DPBS magnetic separation of CD14+ monocytes was performed using an autoMACS Separator. The purity of the isolated monocytes (89.8% for donor 1, 94.8% for donor 2 and 97.7% for donor 3) was corroborated by FACS staining using anti-CD14 antibodies.
Identification of host factors using RNAi may depend to a large extent on the cellular system chosen to perform the screen, what argues for the need of testing the selected hit candidates in cellular systems more representative of the infection in nature. […] The impact of the drug on virus production was assessed by plaque assay 48 h after infection.

[8] = test system: primary human monocytes; test: Viability of primary human monocytes (ATP content); type: cell-based; conditions: 48 h
[9] = test system: DENVsg reporter replicon; test: microbe, parasite or virus in culture; type: cell-based, Dengue virus
[10] = test system: DENV-3; test: Virus yield inhibition assay, DENV-3 in Huh7 cells; type: cell-based, Dengue virus; conditions: 200 μM, Huh7, 48 h
Description: as §1

[11] = biological target: T1, PPARα (Homo sapiens, UniProt Q07869); conditions: antagonist; cited from earlier work
T1 sequence (Q07869 1-468): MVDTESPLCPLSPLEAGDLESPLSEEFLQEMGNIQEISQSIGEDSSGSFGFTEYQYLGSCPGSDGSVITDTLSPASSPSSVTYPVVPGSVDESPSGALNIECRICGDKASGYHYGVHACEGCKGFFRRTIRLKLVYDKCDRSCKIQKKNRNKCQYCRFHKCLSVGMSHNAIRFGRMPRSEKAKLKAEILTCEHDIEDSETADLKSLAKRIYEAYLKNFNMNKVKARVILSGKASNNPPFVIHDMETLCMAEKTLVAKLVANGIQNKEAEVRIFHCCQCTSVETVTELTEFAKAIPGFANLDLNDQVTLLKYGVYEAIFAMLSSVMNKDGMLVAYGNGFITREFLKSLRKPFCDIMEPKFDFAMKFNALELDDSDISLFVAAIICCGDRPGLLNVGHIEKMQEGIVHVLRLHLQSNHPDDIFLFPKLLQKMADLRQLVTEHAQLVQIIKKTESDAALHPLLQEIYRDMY

[12] = biological target: T2, PPARγ (Homo sapiens, UniProt P37231); conditions: antagonist; cited from earlier work
T2 sequence (P37231 1-505): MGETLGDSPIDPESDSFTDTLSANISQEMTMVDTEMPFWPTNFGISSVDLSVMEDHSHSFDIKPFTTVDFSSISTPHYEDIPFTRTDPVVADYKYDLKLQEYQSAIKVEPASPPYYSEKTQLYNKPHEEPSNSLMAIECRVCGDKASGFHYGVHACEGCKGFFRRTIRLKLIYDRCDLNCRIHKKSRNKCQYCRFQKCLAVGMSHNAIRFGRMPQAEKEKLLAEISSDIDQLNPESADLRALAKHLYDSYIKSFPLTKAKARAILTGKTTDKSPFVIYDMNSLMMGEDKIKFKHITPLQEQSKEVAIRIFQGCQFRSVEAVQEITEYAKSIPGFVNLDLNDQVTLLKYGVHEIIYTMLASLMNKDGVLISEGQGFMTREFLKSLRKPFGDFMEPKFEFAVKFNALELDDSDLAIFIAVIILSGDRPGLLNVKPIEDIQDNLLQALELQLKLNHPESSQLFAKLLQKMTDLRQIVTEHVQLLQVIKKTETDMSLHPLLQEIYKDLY

[13] = concentration per compound as in Table 1
[14] = read-out: Maximum effect on DENV replication (inhibition), inhibition of virus production, concentration per compound as in Table 1 column 'Concentration used (FIG. 3B)'

## Cl.N=C(N)CCl [2CA, 2-chloroethanimidamide hydrochloride]
[1]; 50 μM, Huh7, 48 h
  inhibition on virus production: 77%

## O=C(NCc1ccc2c(c1)OCO2)c1c(Cl)cccc1Cl [Alda-1, N-(1,3-Benzodioxol-5-ylmethyl)-2,6-dichlorobenzamide]
[1]; [13]
  Maximum effect on DENV replication (in words): inactive

## CN1C2CCC1CC(OC(=O)C(CO)c1ccccc1)C2 (stereo not drawn) [Atropine, α-(Hydroxymethyl)benzeneacetic acid 8-methyl-8-azabicyclo[3.2.1]oct-3-yl ester]
[1]; [13]
  Maximum effect on DENV replication (in words): inactive

## Oc1cc2c(cc1O)CN(C(=S)NCCc1ccc(Cl)cc1)CCC2 [Capsazepine, N-[2-(4-Chlorophenyl)ethyl]-1,3,4,5-tetrahydro-7,8-dihydroxy-2H-2-benzazepine-2-carbothioamide]
[1]; [13]
  Maximum effect on DENV replication (in words): inactive

## N=C(CCl)NCCC[C@H](NC(=O)c1ccccc1)C(N)=O [Cl-amidine, N-α-benzoyl-N5-(2-chloro-1-iminoethyl)-L-ornithine amide]
[2]
  CC50 at 48 h: > 1 mM
[3]
  reduction on virus production: 10 fold
[4]
  reduction on virus production: 10 fold
[5]
  luciferase activity vs DMSO-treated cells: no difference in luciferase activity
[1]; 200 μM, Huh7, 48 h
  reduction on virus production: 10 fold
[1]; [14]
  Emax: 92.7%
[1]; DENV2, Huh-7, Huh7 transduced with shNT#2
  EC50: 17.1 µM
[1]; DENV2, Huh-7, Huh7 transduced with shPADI4#4 (PADI4 silenced)
  EC50: 1.18 µM
[1]; DENV2, Huh-7, read-out: EC50 ± SD
  EC50: 215 ± 19 µM
[1]; DENV2, Huh-7, read-out: EC50 ± SD, Huh7-Empty control cell line
  EC50: 19.3 ± 2.36 µM
[1]; DENV2, Huh-7, read-out: EC50 ± SD, Parental Huh7, 2 h pretreatment, 48 h
  EC50: 16.1 µM
[1]; highest concentration tested, Huh7
  inhibition of virus titers: up to 100 fold
[6]
  time of addition after infection up to which inhibitory effect remained significant: up to 8 h
[7]; 48 h, monocytes of Donor 1, MOI 10, 48 h, read-out: EC50
  EC50: 16.9 µM
[7]; 48 h, monocytes of Donor 2, MOI 10, 48 h, read-out: EC50
  EC50: 24.6 µM
[7]; 48 h, monocytes of Donor 3, MOI 10, 48 h, read-out: EC50
  EC50: 22.9 µM
[7]; three donors, read-out: EC50 values among different donors
  EC50: 17 to 25 µM
[8]
  cytotoxicity for primary human monocytes: not cytotoxic
[9]; 200 μM, initial 10 h of transfection
  luciferase activity vs DMSO-treated cells: no difference in luciferase activity
[9]; Dengue virus, Huh-7, 48 h, read-out: EC50 (R-Luc activity)
  EC50: 16.5 ± 2.49 µM
[10]
  reduction on virus production: 10 fold

## O=c1c(-c2ccc(O)cc2)coc2cc(O[C@@H]3O[C@H](CO)[C@@H](O)[C@H](O)[C@H]3O)ccc12 [Daidzin, Daidzein-7-O-β-D-glucopyranoside]
[1]; [13]
  Maximum effect on DENV replication (in words): inactive

## COC(=O)c1sccc1S(=O)(=O)Nc1ccc(Nc2ccccc2)cc1OC [GSK0660, 3-(((2-Methoxy-4-(phenylamino)phenyl)amino)sulfonyl)-2-thio-phenecarboxylic acid methyl ester]
[11]
  IC50: > 10 µM
[1]; [14]
  Emax: ~62%
[12]
  IC50: > 10 µM

## Cc1cc(SCc2sc(-c3ccc(C(F)(F)F)c(F)c3)nc2C)ccc1OCC(=O)O [GW0742]
[1]; read-out: Maximum effect on DENV replication (enhancement), enhancement of virus production, concentration per compound as in Table 1
  Emax: ~48%

## C=C(C)C1CNC(C(=O)O)C1CC(=O)O (centres unmarked) [Kainic acid monohydrate, 2-Carboxy-3-carboxymethyl-4-isopropenylpyrrolidine]
[1]; [13]
  Maximum effect on DENV replication (in words): inactive

## CC1CCC(C(C)C)C(O)C1 (centres unmarked) [Menthol, 2-Isopropyl-5-methylcyclohexanol]
[1]; [13]
  Maximum effect on DENV replication (in words): inactive

## COc1ccccc1CNCCCCCCNCCCCCCCCNCCCCCCNCc1ccccc1OC [Methoctramine hydrate, N,N,′-bis[6-[[(2-Methoxyphenyl)methyl]amino]hexyl]-1,8-octane diaminetetrahydrochloride hydrate]
[1]; [13]
  Maximum effect on DENV replication (in words): inactive

## C[N+](C)(C)CC#CCN1CCCC1=O.[I-] [Oxotremorine M, N,N,N,-trimethyl-4-(2-oxo-1-pyrrolidinyl)-2-butyn-1-ammonium iodide]
[1]; [13]
  Maximum effect on DENV replication (in words): inactive

## COc1ccc(NC(=O)C2C[C@H](C)CC[C@H]2C(C)C)cc1 (stereo partly drawn) [WS-12, (2S,5R)-2-Isopropyl-N-(4-methoxyphenyl)-5-methylcyclohexane carboximide]
[1]; [13]
  Maximum effect on DENV replication (in words): inactive
